Tested on: 945468-187-T-J3-PDC spheroids with HUVEC/MSC, viability
Assay: Anticancer human tumor 945468-187-T-J3-PDC patient-derived rectal carcinoma cell line growth inhibition [PI3K]
Conditions: for IC50: curve of first compound; for viability, T/C: stronger effect = lower value
How it was run: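 Tumor cells grown as multi-cell spheroids with HUVEC endothelial cells and MSC fibroblast-like stroma were treated with targeted agents combined with inavolisib, alpelisib, duvelisib or copanlisib. Doses fell in half-log steps from near clinical Cmax, else from 10 microM. Viability was measured.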

[1] = second compound 0.0316 µM, first compound 0.0316 µM
[2] = second compound 0.0316 µM, first compound 0.1 µM
[3] = second compound 0.1 µM, first compound 0.0316 µM
[4] = second compound 0.1 µM, first compound 0.1 µM
[5] = second compound 0.316 µM, first compound 0.0316 µM
[6] = second compound 0.316 µM, first compound 0.1 µM
[7] = second compound 1 µM, first compound 0.0316 µM
[8] = second compound 1 µM, first compound 0.1 µM
[9] = second compound 3.16 µM, first compound 0.0316 µM
[10] = second compound 3.16 µM, first compound 0.1 µM
[11] = second compound 10 µM, first compound 0.0316 µM
[12] = second compound 10 µM, first compound 0.1 µM
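Further: spheroids exposed to agents for 7 days before viability read.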
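Wherever viability, T/C is given: 100% = DMSO vehicle control viability.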

`CC(C)n1nc(-c2ccc3oc(N)nc3c2)c2c(N)ncnc21` + CC(Nc1ncnc2nc[nH]c12)c1cc2cccc(Cl)c2c(=O)n1-c1ccccc1 was tested, and the IC50 (second compound 0.0316 µM) was over 100 nM, the IC50 (second compound 0.1 µM) was over 100 nM and the IC50 (second compound 0.316 µM) was over 100 nM. For the same compound, the IC50 (second compound 1 µM) was over 100 nM, the IC50 (second compound 3.16 µM) was 87.7 nM and the IC50 (second compound 10 µM) was 70.7 nM. The viability, T/C (second compound 0.0316 µM, first compound 0.000316 µM) was 105%, the viability, T/C (second compound 0.0316 µM, first compound 0.001 µM) was 101% and the viability, T/C (second compound 0.0316 µM, first compound 0.00316 µM) was 95%. The viability, T/C (second compound 0.0316 µM, first compound 0.01 µM) was 99.1%, the viability, T/C [1] was 93.2% and the viability, T/C [2] was 62.2%. The viability, T/C (second compound 0.1 µM, first compound 0.000316 µM) was 122%, the viability, T/C (second compound 0.1 µM, first compound 0.001 µM) was 103% and the viability, T/C (second compound 0.1 µM, first compound 0.00316 µM) was 101%. For the same compound, the viability, T/C (second compound 0.1 µM, first compound 0.01 µM) was 91.9%, the viability, T/C [3] was 105% and the viability, T/C [4] was 50.5%. It also gave a viability, T/C (second compound 0.316 µM, first compound 0.000316 µM) of 99%, a viability, T/C (second compound 0.316 µM, first compound 0.001 µM) of 89.1% and a viability, T/C (second compound 0.316 µM, first compound 0.00316 µM) of 102%. It also gave a viability, T/C (second compound 0.316 µM, first compound 0.01 µM) of 97.1%, a viability, T/C [5] of 104% and a viability, T/C [6] of 59.5%. The viability, T/C (second compound 1 µM, first compound 0.000316 µM) was 99.7%, the viability, T/C (second compound 1 µM, first compound 0.001 µM) was 98.4% and the viability, T/C (second compound 1 µM, first compound 0.00316 µM) was 98.3%. The viability, T/C (second compound 1 µM, first compound 0.01 µM) was 112%, the viability, T/C [7] was 96% and the viability, T/C [8] was 51.1%. It also gave a viability, T/C (second compound 3.16 µM, first compound 0.000316 µM) of 104%, a viability, T/C (second compound 3.16 µM, first compound 0.001 µM) of 89.8% and a viability, T/C (second compound 3.16 µM, first compound 0.00316 µM) of 99.1%. It also gave a viability, T/C (second compound 3.16 µM, first compound 0.01 µM) of 101%, a viability, T/C [9] of 103% and a viability, T/C [10] of 43.6%. For the same compound, the viability, T/C (second compound 10 µM, first compound 0.000316 µM) was 103%, the viability, T/C (second compound 10 µM, first compound 0.001 µM) was 96.9% and the viability, T/C (second compound 10 µM, first compound 0.00316 µM) was 93.5%. For the same compound, the viability, T/C (second compound 10 µM, first compound 0.01 µM) was 87%, the viability, T/C [11] was 89.3% and the viability, T/C [12] was 33.7%.

`CC1(C)CCC(CN2CCN(c3ccc(C(=O)NS(=O)(=O)c4ccc(NCC5CCOCC5)c([N+](=O)[O-])c4)c(Oc4cnc5[nH]ccc5c4)c3)CC2)=C(c2ccc(Cl)cc2)C1` + CC(Nc1ncnc2nc[nH]c12)c1cc2cccc(Cl)c2c(=O)n1-c1ccccc1 showed an IC50 (second compound 0.0316 µM) of over 10000 nM, an IC50 (second compound 0.1 µM) of over 10000 nM and an IC50 (second compound 0.316 µM) of over 10000 nM. The IC50 (second compound 1 µM) was over 10000 nM, the IC50 (second compound 3.16 µM) was over 10000 nM and the IC50 (second compound 10 µM) was over 10000 nM. It also gave a viability, T/C [1] of 99.2%, a viability, T/C [2] of 91.9% and a viability, T/C (second compound 0.0316 µM, first compound 0.316 µM) of 95.7%. For the same compound, the viability, T/C (second compound 0.0316 µM, first compound 1 µM) was 96%, the viability, T/C (second compound 0.0316 µM, first compound 3.16 µM) was 117% and the viability, T/C (second compound 0.0316 µM, first compound 10 µM) was 114%. It also gave a viability, T/C [3] of 94.4%, a viability, T/C [4] of 95.8% and a viability, T/C (second compound 0.1 µM, first compound 0.316 µM) of 98.7%. The viability, T/C (second compound 0.1 µM, first compound 1 µM) was 102%, the viability, T/C (second compound 0.1 µM, first compound 3.16 µM) was 105% and the viability, T/C (second compound 0.1 µM, first compound 10 µM) was 106%. The viability, T/C [5] was 111%, the viability, T/C [6] was 106% and the viability, T/C (second compound 0.316 µM, first compound 0.316 µM) was 104%. The viability, T/C (second compound 0.316 µM, first compound 1 µM) was 118%, the viability, T/C (second compound 0.316 µM, first compound 3.16 µM) was 113% and the viability, T/C (second compound 0.316 µM, first compound 10 µM) was 104%. For the same compound, the viability, T/C [7] was 100%, the viability, T/C [8] was 94% and the viability, T/C (second compound 1 µM, first compound 0.316 µM) was 92.6%. The viability, T/C (second compound 1 µM, first compound 1 µM) was 98.6%, the viability, T/C (second compound 1 µM, first compound 3.16 µM) was 110% and the viability, T/C (second compound 1 µM, first compound 10 µM) was 110%. The viability, T/C [9] was 100%, the viability, T/C [10] was 107% and the viability, T/C (second compound 3.16 µM, first compound 0.316 µM) was 95.4%. For the same compound, the viability, T/C (second compound 3.16 µM, first compound 1 µM) was 109%, the viability, T/C (second compound 3.16 µM, first compound 3.16 µM) was 115% and the viability, T/C (second compound 3.16 µM, first compound 10 µM) was 98.2%. For the same compound, the viability, T/C [11] was 105%, the viability, T/C [12] was 95.6% and the viability, T/C (second compound 10 µM, first compound 0.316 µM) was 97.3%. It also gave a viability, T/C (second compound 10 µM, first compound 1 µM) of 103%, a viability, T/C (second compound 10 µM, first compound 3.16 µM) of 120% and a viability, T/C (second compound 10 µM, first compound 10 µM) of 93.9%.

— PubChem BioAssay AID1963968 (Molecular Pharmacology Branch, DTP, NCI, 2024)
